Measured values: PMC12647645, “Structural interactions of BWC0977 with Klebsiella pneumoniae topoisomerase IV and biochemical basis of its broad-spectrum activity” (Communications Biology, 2025)
≈ marks a conversion by molar mass, not a printed value. Where “and” joins values, the source holds several entries; their conditions need not be identical. Equal entries are not always repeated.

Legend:
[1] = molecular target: T1, E. coli gyrase (Escherichia coli, UniProt P0AES4+P0AES6); test: biochemical; type: biochemical; conditions: for Gyrase supercoiling inhibition response: E. coli WT gyrase
T1 construct: purchased Inspiralis

[2] = molecular target: Human topo IIα (Homo sapiens, UniProt P11388); test: Human topo IIα decatenation assay; type: biochemical
Procedure: (§1) Human topo IIα (0.9 nM) and topo IIß (2.2 nM) decatenation assays were performed following the same protocol used for bacterial topoisomerase IV decatenation assays. The assay buffer was made of 50 mM Tris. HCl (pH 7.5), 125 mM NaCl, 10 mM MgCl2, 5 mM DTT, and 100 μg/mL albumin.

[3] = molecular target: Human topo IIß (Homo sapiens, UniProt Q02880); test: Human topo IIß decatenation assay; type: biochemical
Procedure: as §1

[4] = molecular target: P. aeruginosa gyrase (Pseudomonas aeruginosa, UniProt P48372+Q9I7C2); test: biochemical; conditions: for Gyrase supercoiling inhibition response: P. aeruginosa gyrase
[5] = molecular target: S. aureus topoisomerase IV (Staphylococcus aureus, UniProt P0C1S7+P0C1U9); test: biochemical; parameters: Topo IV decatenation inhibition response: unit not given here
Procedure: Assays with P. aeruginosa topoisomerase IV (3 nM) were conducted in a similar buffer but with 50 mM HEPES-KOH (pH 7.9), 100 mM potassium glutamate, 6 mM magnesium acetate, 6 mM DTT, 1 mM ATP, 2 mM spermidine, and 50 μg/mL albumin. For S. aureus topoisomerase IV assay, the reactions contained 4 nM enzyme in an assay buffer composed of 50 mM Tris-HCl (pH 7.5), 5 mM MgCl₂, 5 mM DTT, 1.5 mM ATP, 350 mM potassium glutamate, and 0.05 mg/mL albumin. The procedures followed were consistent with those used in the supercoiling assays. Decatenated minicircles were resolved on 0.8% agarose gels, while the kDNA substrate remained in the wells. Gels were stained with 0.8 μg/mL ethidium bromide solution for 10 min, followed by destaining. DNA bands were visualized using a gel documentation system, and compound inhibition analysis was carried out using the same procedures described for the supercoiling assays.

[6] = molecular target: E. coli GyrA S83L mutant gyrase (Escherichia coli, UniProt P0AES4+P0AES6, S83L); test: biochemical; type: biochemical; conditions: for Gyrase supercoiling inhibition response: GyrA S83L gyrase
[7] = system: E. coli ATCC 25922; test: MIC broth microdilution; type: cell-based; conditions: Escherichia coli, ATCC25922
[8] = system: A. baumannii ATCC 19606; test: MIC broth microdilution; type: cell-based; conditions: Acinetobacter baumannii
[9] = system: E. coli BAA 2471; test: microbe, parasite or virus in culture; type: cell-based; conditions: Escherichia coli, BAA2471
[10] = system: K. pneumoniae KPNIH1; test: microbe, parasite or virus in culture; type: cell-based; conditions: Klebsiella pneumoniae
[11] = system: E. coli ATCC 25922; test: In vitro spontaneous resistance frequency; type: cell-based
Procedure: Spontaneous resistance frequencies to BWC0977 were evaluated in E. coli ATCC 25922, P. aeruginosa ATCC 27853, and A. baumannii ATCC 19606. Mid-logarithmic phase cultures (~10^9 CFU/mL) were plated onto Luria-Bertani agar containing BWC0977 at 4×, 8×, and 16× the respective MICs. Plates were incubated at 37 °C for 24–36 h, and resistance frequencies were estimated by counting colony-forming units (CFUs) on the drug-containing plates. MICs of the isolated colonies were determined, and the gyrA, gyrB, parC, and parE genes were sequenced to assess for target-site mutations.

[12] = system: E. coli tolC strain; test: MIC, efflux-deficient strain; type: cell-based
[13] = system: E. cloacae; conditions: ref 6 (Hameed P et al., 2024); cited from earlier work
[14] = system: E. coli; conditions: ref 6 (Hameed P et al., 2024); cited from earlier work
[15] = system: A. baumannii; parameters: method as in ref 6 (Hameed P et al., 2024); conditions: ref 6 (Hameed P et al., 2024); cited from earlier work
[16] = system: P. aeruginosa; parameters: method as in ref 6 (Hameed P et al., 2024); conditions: ref 6 (Hameed P et al., 2024); cited from earlier work
[17] = system: E. coli ATCC 25922; conditions: >4× MIC; cited from earlier work

## Cn1c(=O)ccc2ccc(F)c(CCNC[C@H]3CN(c4cnc5c(n4)NC(=O)CO5)C(=O)O3)c21 [BWC0977]
[1]
  IC50: 4 ± 1 nM
[1]; compound 0.0003 μM, source data Fig 2A/6A, 0.0003 µM
  Gyrase supercoiling inhibition response: 7.2 and 10.3 and 5.8
[1]; compound 0.0003 μM, source data Fig 2A/6A, listed as 977, 0.0003 µM
  Gyrase supercoiling inhibition response: 10.30 and 5.78
[1]; compound 0.008 μM, source data Fig 2A/6A, 0.008 µM
  Gyrase supercoiling inhibition response: 69.7 and 73.4
[1]; compound 0.008 μM, source data Fig 2A/6A, listed as 977, 0.008 µM
  Gyrase supercoiling inhibition response: 73.65 and 69.70 and 73.41
[1]; compound 0.074 μM, source data Fig 2A/6A, 0.074 µM
  Gyrase supercoiling inhibition response: 93.3 and 92.7
[1]; compound 0.074 μM, source data Fig 2A/6A, listed as 977, 0.074 µM
  Gyrase supercoiling inhibition response: 89.29 and 93.34 and 92.67
[1]; compound 0.222 μM, source data Fig 2A/6A, 0.222 µM
  Gyrase supercoiling inhibition response: 96.5 and 97.7 and 91.5
[1]; compound 0.222 μM, source data Fig 2A/6A, listed as 977, 0.222 µM
  Gyrase supercoiling inhibition response: 97.67 and 91.52
[1]; compound 2 μM, source data Fig 2A/6A, 2 µM
  Gyrase supercoiling inhibition response: 100.2 and 100.3 and 98.6
[1]; compound 2 μM, source data Fig 2A/6A, listed as 977, 2 µM
  Gyrase supercoiling inhibition response: 100.30 and 98.60
[1]; E. coli gyrase
  higher inhibition potency compared to compound 17a: ~ 20 fold
[1]; read-out: Gyrase supercoiling inhibition response, E. coli WT gyrase, compound 0.0003 μM, source data Fig 2A/6A
  inhibition at 0.0003 µM: 7.23%
[1]; read-out: Gyrase supercoiling inhibition response, E. coli WT gyrase, compound 0.008 μM, source data Fig 2A/6A
  inhibition at 0.008 µM: 73.7%
[1]; read-out: Gyrase supercoiling inhibition response, E. coli WT gyrase, compound 0.074 μM, source data Fig 2A/6A
  inhibition at 0.074 µM: 89.3%
[1]; read-out: Gyrase supercoiling inhibition response, E. coli WT gyrase, compound 0.222 μM, source data Fig 2A/6A
  inhibition at 0.222 µM: 96.5%
[1]; read-out: Gyrase supercoiling inhibition response, E. coli WT gyrase, compound 2 μM, source data Fig 2A/6A
  inhibition at 2 µM: 100%
[2]
  selectivity for bacterial enzymes over human topoisomerases IIα and IIβ: more than 5000 fold
[2]; read-out: IC50 Human topo IIα decatenation
  IC50: 113 ± 13 µM
[3]
  IC50: > 200 µM
[4]
  IC50: 9.4 nM
[4]; compound 0.0005 μM, source data Fig 2B, listed as 977, 0.0005 µM
  Gyrase supercoiling inhibition response: 6.77
[4]; compound 0.001 μM, source data Fig 2B, listed as 977, 0.001 µM
  Gyrase supercoiling inhibition response: 9.59
[4]; compound 0.004 μM, source data Fig 2B, listed as 977, 0.004 µM
  Gyrase supercoiling inhibition response: 27.41
[4]; compound 0.012 μM, source data Fig 2B, listed as 977, 0.012 µM
  Gyrase supercoiling inhibition response: 48.08
[4]; compound 0.037 μM, source data Fig 2B, listed as 977, 0.037 µM
  Gyrase supercoiling inhibition response: 69.93
[4]; compound 0.111 μM, source data Fig 2B, listed as 977, 0.111 µM
  Gyrase supercoiling inhibition response: 87.28
[4]; compound 0.333 μM, source data Fig 2B, listed as 977, 0.333 µM
  Gyrase supercoiling inhibition response: 93.63
[4]; compound 1 μM, source data Fig 2B, listed as 977, 1 µM
  Gyrase supercoiling inhibition response: 99.48
[4]; compound 3 μM, source data Fig 2B, listed as 977, 3 µM
  Gyrase supercoiling inhibition response: 100.23
[4]; read-out: Gyrase supercoiling inhibition response, P. aeruginosa gyrase, compound 0.0005 μM, source data Fig 2B
  inhibition at 0.0005 µM: 12.6%
[4]; read-out: Gyrase supercoiling inhibition response, P. aeruginosa gyrase, compound 0.001 μM, source data Fig 2B
  inhibition at 0.001 µM: 16.5%
[4]; read-out: Gyrase supercoiling inhibition response, P. aeruginosa gyrase, compound 0.004 μM, source data Fig 2B
  inhibition at 0.004 µM: 32.4%
[4]; read-out: Gyrase supercoiling inhibition response, P. aeruginosa gyrase, compound 0.012 μM, source data Fig 2B
  inhibition at 0.012 µM: 61.3%
[4]; read-out: Gyrase supercoiling inhibition response, P. aeruginosa gyrase, compound 0.037 μM, source data Fig 2B
  inhibition at 0.037 µM: 85.1%
[4]; read-out: Gyrase supercoiling inhibition response, P. aeruginosa gyrase, compound 0.111 μM, source data Fig 2B
  inhibition at 0.111 µM: 97.4%
[4]; read-out: Gyrase supercoiling inhibition response, P. aeruginosa gyrase, compound 0.333 μM, source data Fig 2B
  inhibition at 0.333 µM: 99%
[4]; read-out: Gyrase supercoiling inhibition response, P. aeruginosa gyrase, compound 1 μM, source data Fig 2B
  inhibition at 1 µM: 99.8%
[4]; read-out: Gyrase supercoiling inhibition response, P. aeruginosa gyrase, compound 3 μM, source data Fig 2B
  inhibition at 3 µM: 103%
[5]
  IC50: 110 nM
[5]; S. aureus topo IV, compound 0.0037 μM, source data Fig 2C, read-out: Topo IV decatenation inhibition response
  inhibition at 0.0037 µM: 0%
[5]; S. aureus topo IV, compound 0.0988 μM, source data Fig 2C, listed as 977, 0.0988 µM
  Topo IV decatenation inhibition response: 31.67 and 43.21 and 56.17
[5]; S. aureus topo IV, compound 0.2963 μM, source data Fig 2C, listed as 977, 0.2963 µM
  Topo IV decatenation inhibition response: 76.23 and 76.66
[5]; S. aureus topo IV, compound 0.2963 μM, source data Fig 2C, read-out: Topo IV decatenation inhibition response
  inhibition at 0.2963 µM: 67%
[5]; S. aureus topo IV, compound 0.8889 μM, source data Fig 2C, listed as 977, 0.8889 µM
  Topo IV decatenation inhibition response: 92.92 and 90.9
[5]; S. aureus topo IV, compound 0.8889 μM, source data Fig 2C, read-out: Topo IV decatenation inhibition response
  inhibition at 0.8889 µM: 89.7%
[5]; S. aureus topo IV, compound 2.6667 μM, source data Fig 2C, read-out: Topo IV decatenation inhibition response
  inhibition at 2.6667 µM: 98.1%
[5]; S. aureus topo IV, compound 8 μM, source data Fig 2C, listed as 977, 8 µM
  Topo IV decatenation inhibition response: 99.9 and 99.56
[5]; S. aureus topo IV, compound 8 μM, source data Fig 2C, read-out: Topo IV decatenation inhibition response
  inhibition at 8 µM: 99.7%
[6]; Fig. 6, read-out: IC50 S83L gyrase supercoiling
  IC50: 3 nM
[6]; compound 0.0005 µM, source data Fig 6A, 0.0005 µM
  Gyrase supercoiling inhibition response: 7.40
[6]; compound 0.0014 µM, source data Fig 6A, 0.0014 µM
  Gyrase supercoiling inhibition response: 20.69
[6]; compound 0.0041 µM, source data Fig 6A, 0.0041 µM
  Gyrase supercoiling inhibition response: 57.16
[6]; compound 0.012 µM, source data Fig 6A, 0.012 µM
  Gyrase supercoiling inhibition response: 82.23
[6]; compound 0.037 µM, source data Fig 6A, 0.037 µM
  Gyrase supercoiling inhibition response: 88.47
[6]; compound 0.111 µM, source data Fig 6A, 0.111 µM
  Gyrase supercoiling inhibition response: 97.88
[6]; compound 0.333 µM, source data Fig 6A, 0.333 µM
  Gyrase supercoiling inhibition response: 98.84
[6]; compound 1 µM, source data Fig 6A, 1 µM
  Gyrase supercoiling inhibition response: 98.71
[6]; compound 3 µM, source data Fig 6A, 3 µM
  Gyrase supercoiling inhibition response: 96.44
[6]; quinolone-resistant S83L vs WT
  potency shift relative to WT: < 3 fold
[6]; read-out: Gyrase supercoiling inhibition response, GyrA S83L gyrase, compound 0.0014 µM, source data Fig 6A
  inhibition at 0.0014 µM: 35%
[6]; read-out: Gyrase supercoiling inhibition response, GyrA S83L gyrase, compound 0.0041 µM, source data Fig 6A
  inhibition at 0.0041 µM: 60.7%
[6]; read-out: Gyrase supercoiling inhibition response, GyrA S83L gyrase, compound 0.012 µM, source data Fig 6A
  inhibition at 0.012 µM: 74.3%
[6]; read-out: Gyrase supercoiling inhibition response, GyrA S83L gyrase, compound 0.037 µM, source data Fig 6A
  inhibition at 0.037 µM: 90.2%
[6]; read-out: Gyrase supercoiling inhibition response, GyrA S83L gyrase, compound 0.111 µM, source data Fig 6A
  inhibition at 0.111 µM: 91%
[6]; read-out: Gyrase supercoiling inhibition response, GyrA S83L gyrase, compound 0.333 µM, source data Fig 6A
  inhibition at 0.333 µM: 97.8%
[6]; read-out: Gyrase supercoiling inhibition response, GyrA S83L gyrase, compound 1 µM, source data Fig 6A
  inhibition at 1 µM: 99.5%
[6]; read-out: Gyrase supercoiling inhibition response, GyrA S83L gyrase, compound 3 µM, source data Fig 6A
  inhibition at 3 µM: 97.9%
[7]
  MIC: 0.06 µg/mL (≈ 0.128 µM)
[8]; ATCC19606
  MIC: 0.125 µg/mL (≈ 0.267 µM)
[8]; ATCC19606, read-out: MIC 90 in (μg/mL), A. baumannii ATCC 19606 (WT)
  MIC90: 0.15 µg/mL (≈ 0.32 µM)
[9]
  MIC: 0.5 µg/mL (≈ 1.07 µM)
[10]
  MIC: 1 µg/mL (≈ 2.13 µM)
[11]; 4× MIC
  resistance frequency: less than 1 × 10^−9
[11]; mutants selected with ciprofloxacin 0.05 μg/mL
  sensitivity of ciprofloxacin-resistant mutants (GyrA S83L or D87Y): remained sensitive
[12]
  difference in MICs between tolC strain and wild-type strain: 10 fold
[12]; Escherichia coli
  MIC: 1 ng/mL (≈ 0.00213 µM)
[13]
  MIC90 against diverse global isolates: 2 µg/mL (≈ 4.27 µM)
[14]
  MIC90 against diverse global isolates: 0.5 µg/mL (≈ 1.07 µM)
[15]
  MIC90 against diverse global isolates: 1 µg/mL (≈ 2.13 µM)
[16]
  MIC90 against diverse global isolates: 1 µg/mL (≈ 2.13 µM)
[17]
  resistant colonies on exposure: no resistant colonies
